Assay results taken from patent US20240091203A1, “METHODS FOR TREATING NON-OBSTRUCTIVE HYPERTROPHIC CARDIOMYOPATHY” (Cytokinetics, Incorporated, priority 2022, published 2024).
Values joined by “and” are separate entries in the source; they are usually repeats but may differ in a detail not shown here. Equal values may be shown once. “Also recorded” adds a separate entry of the source.

Columns and labels:
[1] = system: patients with symptomatic non-obstructive HCM (nHCM) or HCM with MVO; assay: Phase 2 trial (Example 2): NYHA Functional Classification; type: in vivo, human
Text: Other exploratory endpoints included: (i) Change in NYHA Functional Classification from baseline to Week 10; and (ii) For patients with baseline NYHA Class III disease, percentage with improvement to NYHA Class I or II disease at Week 10.

healthy adults = assay: Phase 1 pharmacodynamics by echocardiography (LVEF and other parameters, PK/PD); type: in vivo, human
Experimental: Echocardiography. For PD assessments of LVEF, echocardiograms for the SAD and MAD cohorts were interpreted by the echocardiography core laboratory and used for all data analysis and dose level review decisions while immediate local interpretation of the echocardiograms was performed for safety monitoring. […] Echocardiograms on day 3 (48 h after dosing) were obtained only if the 24 h LVEF had not returned to near or above baseline, as determined by the investigator. In the MAD cohorts, echocardiograms were obtained on day −1, pre-dose on day 1, and at 1.5 h post dose on days 2, 4, and 9, and at 1.5, 24, and 72 h post dose on day 14 (for the 5-mg and 10-mg cohorts) or on day 17 (for the 7.5-mg cohort). Echocardiograms were obtained 3 days after the last dose (on day 17 or 20) only if the participant's prior LVEF was not near or above baseline, as determined by the investigator.
All participants who received ≥1 dose of study drug and had ≥1 pre-dose and ≥1 post-dose echocardiographic measurement were included in the PD analysis set. […] Descriptive statistics of the echocardiographic parameters were generated using SAS® Version 9.3 or higher.
Dose-response analysis was performed using analysis of covariance (ANCOVA) to identify the least-squares mean difference (aficamten minus placebo). To analyze the impact of drug dose on echocardiographic parameters in the SAD and MAD cohorts, an inferential analysis was conducted on the PD analysis set using linear mixed models for repeated-measures analysis of covariance (ANCOVA). The ANCOVA used baseline value as a covariate, included treatment, time-point, and time-point-by-treatment interaction as fixed effects, and change from baseline as the dependent variable. The unstructured variance-covariance structure was used, and the model accounted for the time-point repeated measures. The ANCOVA analysis was conducted separately for each study part and for each PD parameter. The least-squares means, the difference in least squares means (active minus placebo), and the associated 2-sided 95% CIs were presented for each comparison.
Analyses of concentration ‘bin’ and exposure-response were also performed using ANCOVA. SAS® PROC MIXED was used for all comparative analyses. […] A concentration bin ANCOVA was conducted using linear mixed models for repeated-measures analyses with concentration bin group as a fixed effect, baseline PD parameters as a covariate, change from baseline as the dependent variable, and a random intercept to adjust for the repeated measures. The unstructured variance-covariance structure was used. […] The ANCOVA compared the change in PD parameters between each bin versus the pooled placebo group.
The least-squares means, the difference in least squares means (bin group minus placebo), and the associated 2-sided 95% CIs were presented for each comparison. The ANCOVA analysis was conducted separately for each study part. For all time-points at which both PK data and PD measures were available, the time-points were pooled for the analysis. […] From least to greatest, the data were then divided into 5 groups of observations (‘bins’), each consisting of 20% of the data points. Each bin was treated as a separate group.
The above analysis was then repeated using concentration as a continuous variable to estimate the exposure-response trend. Both a random intercept effect and a random concentration effect were added to the ANCOVA. The estimate of the concentration slope, with corresponding 2-sided 95% CIs, and the ANCOVA analyses were presented for each study part.
For all time-points at which both PK data and PD measures were available, the time points were pooled for the analysis. A nominal significance level of 5% was used for statistical comparisons, without adjustment for multiplicity.

[2] = SAD 50 mg (n = 11), change from baseline at […], mean

CCc1nc(-c2ccc3c(c2)CC[C@H]3NC(=O)c2cnn(C)c2)no1 [aficamten, (R)—N-(5-(5-ethyl-1,2,4-oxadiazol-3-yl)-2,3-dihydro-1H-inden-1-yl)-1-methyl-1H-pyrazole-4-carboxamide]
patients with a change of ≥1 NYHA Class ([1]; 22 of 41 patients, interim): 54% | patients with functional improvement of ≥1 NYHA class ([1]; Week 10, second interim, p=0.011 vs assumed 37% placebo effect): 56% | patients achieving NYHA Class 1 (asymptomatic) ([1]; by Week 10, second interim): 28% | patients who improved from NYHA Class II to I ([1]; interim): 8 patients | patients who improved from NYHA Class III to I ([1]; interim): 4 patients | patients who improved from NYHA Class III to II ([1]; interim): 12 patients | relationship of LVEF to plasma concentration of aficamten (healthy adults; MAD cohorts, bin concentration or linear regression analysis): did not reach statistical significance | suppression of LVEF versus plasma concentration (healthy adults; MAD cohorts, plasma aficamten concentrations of ≤180 ng/ml): minimal suppression of LVEF | participants with decreases in LVEF to <50% (healthy adults; Phase 1, rapidly reversible upon study drug discontinuation): Three participants | E (peak E wave velocity) (healthy adults; SAD 50 mg (n = 11), […], mean): 64 cm/s | A (peak A wave velocity), CFB (healthy adults; [2]): 2.5 cm/s | E (peak E wave velocity), CFB (healthy adults; [2]): -2.7 cm/s | Heart rate, CFB (healthy adults; [2]): 0.5 bpm | IVCT, CFB (healthy adults; [2]): 0.4 ms | IVRT, CFB (healthy adults; [2]): 0.5 ms | LAV, CFB (healthy adults; [2]): 0 mL | LV EDV, CFB (healthy adults; [2]): 6.6 mL | LV ESV, CFB (healthy adults; [2]): 8.1 mL | LV ET, CFB (healthy adults; [2]): 1.9 ms | LV SV, CFB (healthy adults; [2]): -6.2 mL | LVEF, CFB (healthy adults; [2]): −5.8% | e′ lateral, CFB (healthy adults; [2]): -1.3 cm/s | time after dosing at which LVEF <50% was noted (healthy adults; SAD 50 mg and 75 mg, 3 participants): approximately 1.5 h | participants with absolute reduction in LVEF of ≥5% from baseline (healthy adults; SAD 1-mg cohort): no participants | participants with absolute reduction in LVEF of ≥5% from baseline (healthy adults; SAD 10-mg cohort): no participants | participants with absolute reduction in LVEF of ≥5% from baseline (healthy adults; SAD 25-mg cohort): no participants | participants with reduction in LVEF to <50% (healthy adults; SAD 50-mg cohort, 2 of 11, core laboratory): 18% | reduction in LVEF from baseline, least-squares mean difference (healthy adults; SAD 50-mg cohort, […] post dose, p=0.0001): 5.5% | LVEF of the 2 participants with LVEF <50% (healthy adults; SAD 50-mg cohort, per core laboratory assessment): 48.2% and 45.5% | participants with reduction in LVEF to <50% (healthy adults; SAD 75-mg cohort, 1 of 1): 100% | participants with LVEF <45% (healthy adults; SAD cohorts, core laboratory): Only the participant in the 75-mg cohort | relationship of LVEF to plasma concentration of aficamten (healthy adults; SAD cohorts, highest bin 122 to 524 ng/ml p<0.0001, concentration-slope p=0.0027): statistically significant decrease in LVEF; also recorded: trend toward a decrease in LVEF | reduction in LVEF to <50% (healthy adults; any of the MAD cohorts, core laboratory): not observed | time for reversal of decreases in LVEF to values <50% (healthy adults; following single doses): ≤ 6 h | time for LVEF to return to baseline (healthy adults; participants whose LVEF fell below 50%): ≤ 24 h | LVEF after reduction (healthy adults; single dose of 75 mg, 1 participant): 34.1% | reduction in LVEF (healthy adults; single participant, SAD 75 mg, […] post dose): 31.5%
